{"source": "patent EP4186488A1", "about": "“A TOPICAL COMPOSITION” (Unilever IP Holdings B.V., priority 2021, dated 2023)"}
{"test_system": "Human primary melanocytes", "assay": "melanin content assay (MCA)", "type": "cell-based", "conditions": "72 hours incubation with active(s), wt% of active(s) as listed per example, OD 405nm, untreated cells = 100% melanin content", "description": "In-vitro studies on the effect of the combination of the actives on melanin inhibition using melanin content assay (MCA) was used. The method is described below. Human primary melanocytes were grown in melanocytes growth medium (MGM) with human melanocyte growth supplement. 500 µL/well (5X10^4 cells/well) of this solution was plated in a 24 wells plate and incubated in an incubator (Thermo Scientific, Model 3111) at 37°C with 5% CO2 atmosphere. After 24 hours of incubation, cell cultures were treated with the lead actives either dissolved in water or DMSO. The cells were again incubated for 72 hours in an incubator (Thermo Scientific, Model 3111; conditions: 5% CO2, at 37°C). Comparative vehicle controls of 0.1 % (v/v) DMSO or media control (for aqueous actives) were also set up simultaneously. At the end of the incubation period, cell viability was determined using the calcein method. After calcein fluorescence readings were obtained, drained the cells and added fresh 0.15 ml of 1N NaOH (in 10% DMSO) per well. Cells were lysed by resuspension and incubation (60 °C/1 hr.). Then, 0.12 ml of this lysate was transferred to a fresh […] plate and measured OD405nm in a TECAN M1000 plate reader (estimate of relative melanin content). The spectrophotometric OD at 405nm for untreated cells (No active) is considered as 100% melanin content, with respect to this, treatment (active) percentage is calculated.", "units": {"% melanin inhibition": "%"}}
{"smiles": "CCCCCCC(O)CCCCCCCCCCC(=O)O", "note": "(stereo not shown) [E, 12-hydroxystearic acid]", "% melanin inhibition": 4.1}
{"smiles": "NC(=O)c1cccnc1", "note": "[D, Niacinamide]", "% melanin inhibition": 6.1}
{"smiles": "NC(=O)c1cccnc1", "note": "[B, Niacinamide]", "% melanin inhibition": 7.4}
{"smiles": "NC(=O)c1cccnc1", "note": "[C, Niacinamide]", "% melanin inhibition": 9.2}
